Measured values as given in patent US9321737B2, “CDK8-CDK19 selective inhibitors and their use in anti-metastatic and chemopreventative methods for cancer” (SENEX BIOTECHNOLOGY INC, priority 2012, dated 2016).

Experiments:
MDA-MB-231 = MDA-MB-231 orthotopic TNBC xenograft; assay type: in vivo, female SCID mice; conditions: 1 mg/kg doxorubicin single dose, three rounds
Description: Once tumors were formed, mice were randomized into 4 cohorts (n=10) and treated, at 7-10 day intervals, with three rounds of: vehicle (5 daily doses), 1 mg/kg doxorubicin (single dose), 40 mg/kg Senexin B (5 daily doses) or doxorubicin (single dose)+Senexin B (5 daily doses).

MDA-MB-468 = MDA-MB-468 TNBC xenograft model; assay type: in vivo, female nude mice; conditions: 40 mg/kg Senexin B daily i.p.; 4 mg/kg doxorubicin two injections two weeks apart
Description: Female nude mice were inoculated with MDA-MB-468 cells, and once palpable tumors were formed, mice were randomized into 4 groups, treated daily i.p. with vehicle alone (n=12), 40 mg/kg Senexin B, two injections with 4 mg/kg doxorubicin two weeks apart, or doxorubicin combined with Senexin B (n=8 in each of the latter groups).

[1] = system: MDA-MB-468 TNBC tumor invasion; assay: Histological analysis of MDA-MB-468 tumor invasion (H&E); assay type: in vivo, female nude mice; conditions: tumors from FIG. 15B experiment
Description: At the end of the experiment shown in FIG. 15B, mice were sacrificed, tumors were removed, formalin fixed, sectioned and processed for histological analysis after H&E staining.

[2] = system: CDKI pathway (CMV promoter stimulation by p21) in HT1080 fibrosarcoma cells; assay: CDKI pathway inhibition cellular assay (CMV-GFP induction by IPTG-inducible p21); assay type: cell-based, human; conditions: IPTG-induced p21, CMV-GFP / Hoechst 33342, read-out: Cell-based Assay EC50
Description: The compounds described below are shown in Table 1 and the structures of some novel compounds according to the invention are shown in FIG. 1. […] All the compounds were tested for the ability to inhibit the CDKI pathway in a cellular assay described in our previous patent application PCT/US06/01046. This assay is based on the induction of green fluorescent protein (GFP) expression from the cytomegalovirus (CMV) promoter in human HT1080 fibrosarcoma cells that express CDKI p21 from an isopropyl-β-thio-galactoside (IPTG)-inducible promoter. The compound activity as a CDKI pathway inhibitor is measured by its ability to prevent the stimulation of the CMV promoter upon the addition of p21-inducing IPTG. CMV promoter activity is measured by the ratio of GFP fluorescence to the relative cell number, as determined by staining cellular DNA with Hoechst 33342.

[3] = Solubility in 20% propylene glycol; assay type: physicochemical; conditions: 1 mM, 40° C., 30 min, centrifuged, OD reading
Description: (§1) The compounds were also tested for solubility in 20% propylene glycol and in water, as follows. Compounds (dry powder) were dissolved in 20% propylene glycol at a concentration of 1 mM at a temperature of 40° C. with occasional vortexing. After 30 min, the solution was centrifuged at 10,000×g for 5 min. Serial dilutions of the cleared supernatant were prepared and used to measure the compound concentrations through OD reading, relative to 1 μM standard solution of the same compound. The results of the measurement were expressed as % solubility of the compound at 1 mM in 20% propylene glycol. To determine water solubility, the compounds (dry powder) were initially dissolved in water at a concentration of 100 mM at a temperature of 40° C. with occasional vortexing. After 30 min, the solution was centrifuged at 10,000×g for 5 min, and the formation of an insoluble pellet was monitored. At subsequent steps, the compound was attempted to be dissolved at lower concentrations, until no pellet was observed after centrifugation, indicating complete solution of the compound.

Water solubility = assay type: physicochemical; conditions: 40° C., 30 min, no pellet after centrifugation
Description: as §1

Structure (SMILES): COc1cccc2c1C(=O)c1c(O)c3c(c(O)c1C2=O)C[C@@](O)(C(=O)CO)C[C@@H]3O[C@H]1C[C@H](N)[C@H](O)[C@H](C)O1 [doxorubicin, reference compound]
- lower body weight than control mice (MDA-MB-231): about 15%
- tumor growth (tumor volumes after 30 days of treatment) (MDA-MB-468): significantly slowed down the tumor growth
- invasive or non-invasive tumor growth [1]: displayed invasive growth

Structure (SMILES): CN1CCN(C(=O)c2ccc(CCNc3ncnc4ccc(C#N)cc34)cc2)CC1 [SNX2-1-153]
- EC50 [2]: 5.21 µM
- % solubility at 1 mM in 20% propylene glycol [3]: 100%
- Water Solubility (Water solubility): Soluble at 10 mM

Structure (SMILES): COCCNC(=O)c1ccc(CCNc2ncnc3ccc(C#N)cc23)cc1 [SNX2-1-150]
- EC50 [2]: 2.2 µM
- % solubility at 1 mM in 20% propylene glycol [3]: 100%
- Water Solubility (Water solubility): Soluble at 10 mM

Structure (SMILES): N#Cc1ccc2ncnc(NCCc3ccc(C(=O)N4CCCCC4)cc3)c2c1 [SNX2-1-152]
- EC50 [2]: 3.83 µM
- % solubility at 1 mM in 20% propylene glycol [3]: 100%

Structure (SMILES): CN(C)CCNC(=O)c1ccc(CCNc2ncnc3ccc(C#N)cc23)cc1 [SNX2-1-155]
- EC50 [2]: 4.57 µM
- % solubility at 1 mM in 20% propylene glycol [3]: 100%
- Water Solubility (Water solubility): Soluble at 10 mM
